Entries after “also recorded” stand apart in the source; their conditions may differ. Bridges are numbered along the chain shown (N, C = ends). Where no end group is shown, it is not given here.
Assays:
rNav1.3 = assay: TEVC, Nav1.3 in Xenopus oocytes; assay type: cell-based, rat
Text: (§1) For the expression of Kv channels (rKv1.1, rKv1.2, rKv1.3, rKv1.4, rK1.5, rKv1.6, hKv2.1, hKv3.1, rKv4.2, hKv7.1, hKv7.2/7.3, hKv7.4, KQT1 (from the roundworm Caenorhabditis elegans), hKv10.1 (hEAG1), hKv11.1 (hERG1), and Shaker, from Drosophila melanogaster), Nav channels (rNav1.1, rNav1.2, rNav1.3, rNav1.4, hNav1.5, mNav1.6, hNav1.7, hNav1.8, and BgNav (from the cockroach Blattella germanica), as well as the hβ1 and rβ1 subunits, and Cav channels (rCav3.1, hCav3.2, and rCav3.3) in Xenopus oocytes, the linearized plasmids were transcribed using the T7 or SP6 mMESSAGEmMACHINE transcription kit (Ambion, Austin, TX, USA). Mature female animals were purchased from Nasco (Fort Atkinson, WI, USA) and were housed in the Aquatic Facility (KU Leuven) in compliance with the regulations of the European Union (EU) concerning the welfare of laboratory animals as declared in Directive 2010/63/EU. The use of X. laevis oocytes was approved by the Animal Ethics Committee of the KU Leuven, with the license number P186/2019.
(§2) Stage V–VI oocytes were collected from anesthetized female X. laevis frog as previously described, with the frogs anesthetized by placement in a 0.1% tricaine solution (amino benzoic acid ethyl ester; Merck, Kenilworth, NJ, USA). Oocyte microinjection was performed using a microinjector (Drummond Scientifc®, Broomall, PA, USA), with a programmed cRNA injection volume of 4–50 nL, depending on channel subtype. The oocytes were incubated in ND96 solution (96 mM NaCl; 2 mM KCl; 1.8 mM CaCl2; 2 mM MgCl2, and 5 mM HEPES, pH 7.4), supplemented with 50 mg/L of gentamicin sulfate.
(§3) Electrophysiological measurements were performed at room temperature (18–22 °C) using the two-electrode voltage-clamp (TEVC) technique. Data were obtained using a GeneClamp 500 amplifier (Axon Instruments®, Burlingame, CA, USA) and Clampex9 software (Axon Instruments®, USA) was responsible for data acquisition and storage. Glass micropipettes were produced using glass capillaries (borosilicate WPI 1B120-6) and drawn in a WPI (World Precision Instruments®, Sarasota, FL, USA) manual stretcher. The bath and perfusion solutions were either the previously described ND96 (Nav and Kv channels) or calcium-free ND96 supplemented with 10 mM BaCl2 (Cav channels).
(§4) Whole-cell currents of oocytes were recorded 1 to 3 days after RNA injection. The current and voltage electrodes were filled with 3 M KCl, and their resistance was adjusted from 1.0 to 2.5 MΩ. Currents were sampled at 20 kHz (Nav channels) and 10 kHz (Kv and Cav channels) and filtered using a four-pole Bessel low-pass Bessel filter at 1 kHz for sodium and […] for potassium and calcium, except for the hERG ion channel in which the currents were filtered at 1 kHz. Leak subtraction was performed using a P/4 protocol. Kv1.x currents were evoked by 500 ms depolarizations to 0 mV, followed by a 500 ms pulse to −50 mV from a holding potential of −90 mV. Kv2.1, Kv3.1, Kv4.2, Kv7.x, and KQT1 currents were elicited by 700 ms pulses to +20 mV from a holding potential of −90 mV. Current traces of the hERG1 channel were elicited by applying a +40 mV prepulse for 2 s, followed by a step of −120 mV for 2 s. […] The current–voltage relationships were determined by 50 ms step depolarizations between −90 and +65 mV using 5 or 10 mV increments. All electrophysiological data were analyzed following the procedures described by Peigneur et al., 2012 [20].
(§5) All values were expressed as means ± SEM. […]

BgNav = assay: TEVC, BgNav in Xenopus oocytes; assay type: cell-based, Blattella germanica
Text: as §1, §2, §3, §4, §5

rKv1.3 = assay: TEVC, Kv1.3 in Xenopus oocytes; assay type: cell-based, rat; settings: 1 µM, ND96 pH 7.4, 18–22 °C, n ≥ 3
Text: as §1, with “P186/2019. […]” for “P186/2019.”
(§6) Whole-cell currents of oocytes were recorded 1 to 3 days after RNA injection. […] The current–voltage relationships were determined by 50 ms step depolarizations between −90 and +65 mV using 5 or 10 mV increments. All electrophysiological data were analyzed following the procedures described by Peigneur et al., 2012 [20].
as §5

hNav1.5 = assay: TEVC, Nav1.5 in Xenopus oocytes; assay type: cell-based, human
Text: as §1, §2, §3
Whole-cell currents of oocytes were recorded 1 to 3 days after RNA injection. The current and voltage electrodes were filled with 3 M KCl, and their resistance was adjusted from 1.0 to 2.5 MΩ. Currents were sampled at 20 kHz (Nav channels) and 10 kHz (Kv and Cav channels) and filtered using a four-pole Bessel low-pass Bessel filter at 1 kHz for sodium and […] for potassium and calcium, except for the hERG ion channel in which the currents were filtered at 1 kHz. Leak subtraction was performed using a P/4 protocol. Kv1.x currents were evoked by 500 ms depolarizations to 0 mV, followed by a 500 ms pulse to −50 mV from a holding potential of −90 mV. Kv2.1, Kv3.1, Kv4.2, Kv7.x, and KQT1 currents were elicited by 700 ms pulses to +20 mV from a holding potential of −90 mV. Current traces of the hERG1 channel were elicited by applying a +40 mV prepulse for 2 s, followed by a step of −120 mV for 2 s. Current traces of hEAG1 were elicited by a 2 s depolarization to 0 mV from a holding potential of −90 mV. Sodium current traces were evoked by a 100 ms depolarization to 0 mV. For Cav channels, current traces were elicited by 700 ms depolarizations to −20 mV from a holding potential of −90 mV. The current–voltage relationships were determined by 50 ms step depolarizations between −90 and +65 mV using 5 or 10 mV increments. All electrophysiological data were analyzed following the procedures described by Peigneur et al., 2012 [20].
All values were expressed as means ± SEM. Differences in ionic currents between the control and toxin conditions were compared by a one-way ANOVA, followed by Dunnett’s multiple comparisons test. Differences were considered statistically significant when […].

[1] = system: voltage-gated potassium (KV), sodium (NaV), and calcium (CaV) channels; assay: TEVC screening panel of 28 voltage-gated ion channels; assay type: cell-based; settings: 1 µM; 28 channels screened
Text: as §1, with “P186/2019. […]” for “P186/2019.”
as §6, §5

rNav1.1 = assay: TEVC, Nav1.1 in Xenopus oocytes; assay type: cell-based, rat
Text: as §1, §2, §3, §4, §5

Shaker = assay: TEVC, Shaker in Xenopus oocytes; assay type: cell-based, Drosophila melanogaster; settings: 1 µM, ND96 pH 7.4, 18–22 °C, n ≥ 3
Text: as §1, with “P186/2019. […]” for “P186/2019.”
as §6, §5

ASIC3 = settings: cited from earlier work
Text: (§7) Hcr 1b-2, the major peptide, presents 41 residues and belongs to the class 1b of sea anemone toxins, with a molecular mass of 4518.9 Da (Uniprot accession number C0HL52).

ASIC1a = settings: cited from earlier work
Text: as §7

rNav1.4 = assay: TEVC, Nav1.4 in Xenopus oocytes; assay type: cell-based, rat
Text: as §1, §2, §3, §4, §5

rKv1.4 = assay: TEVC, Kv1.4 in Xenopus oocytes; assay type: cell-based, rat
Text: as §1, §2, §3, §4, §5

hKv7.4 = assay: TEVC, Kv7.4 in Xenopus oocytes; assay type: cell-based, human
Text: as §1, §2, §3
Whole-cell currents of oocytes were recorded 1 to 3 days after RNA injection. The current and voltage electrodes were filled with 3 M KCl, and their resistance was adjusted from 1.0 to 2.5 MΩ. […] The current–voltage relationships were determined by 50 ms step depolarizations between −90 and +65 mV using 5 or 10 mV increments. All electrophysiological data were analyzed following the procedures described by Peigneur et al., 2012 [20].
as §5

[2] = 1 µM, 100 ms depolarization to 0 mV, mean ± SEM, n ≥ 3
[3] = 1 µM, TEVC, ND96 pH 7.4, 18–22 °C, n ≥ 3

With “GTPCKCHGYIGVYWFMLAGCPNGYGYNLSCPYFLGICCVKK (disulfide 4-37, 6-30, 20-38 (inferred)) [Hcr 1b-2]” as the sequence, how does the “Shift in Vhalf activation, Nav1.3” value (rNav1.3; 1 µM vs control (ND96)) read?
The value was 5.3 mV.

What about the “Shift in Vhalf inactivation, Nav1.3” value (rNav1.3; 1 µM vs control (ND96)) of the same sequence?
Its value is −3.4 mV.

What about the “inhibition of peak amplitude (INa), Nav1.3” value (rNav1.3; [2]) of the same sequence?
Its value is 11.2 ± 1.8%.

And the “Vhalf activation, Nav1.3” value (rNav1.3; 1 µM, control (ND96) −21.2 ± 0.1, mean ± SEM, n ≥ 3)?
The value was −15.9 ± 0.1 mV.

And the “Vhalf inactivation, Nav1.3” value (rNav1.3; 1 µM, control (ND96) −29.9 ± 0.1, mean ± SEM, n ≥ 3)?
Its value is −33.3 ± 0.1 mV.

What about the “Shift in Vhalf activation, BgNav” value (BgNav; 1 µM vs control (ND96)) of the same sequence?
The value was 1.9 mV.

What about the “Shift in Vhalf inactivation, BgNav” value (BgNav; 1 µM vs control (ND96)) of the same sequence?
Its value is −5.0 mV.

And the “reduction of peak amplitude (INa) / inhibition, BgNav” value (BgNav; [2])?
Its value is 17.7 ± 1.2%.

And the “Vhalf activation, BgNav” value (BgNav; 1 µM, control (ND96) −29.0 ± 0.1, mean ± SEM, n ≥ 3)?
Its value is −27.1 ± 0.1 mV.

What about the “Vhalf inactivation, BgNav” value (BgNav; 1 µM, control (ND96) −47.9 ± 0.3, mean ± SEM, n ≥ 3) of the same sequence?
The value was −52.9 ± 0.3 mV.

What about the “effect on potassium current, Kv1.3” value (rKv1.3) of the same sequence?
The value was “inhibition”.

And the “effect on activation or inactivation, Nav1.5” value (hNav1.5; 1 µM)?
Its value is “no significant effect”.

What about the “Shift in Vhalf activation, Nav1.5” value (hNav1.5; 1 µM vs control (ND96)) of the same sequence?
Its value is 3.8 mV.

And the “Shift in Vhalf inactivation, Nav1.5” value (hNav1.5; 1 µM vs control (ND96))?
The value was −3.2 mV.

And the “reduction of peak amplitude (INa), Nav1.5” value (hNav1.5; [2])?
The value was 41.6 ± 5.9%.

And the “Vhalf activation, Nav1.5” value (hNav1.5; 1 µM, control (ND96) −38.5 ± 0.1, mean ± SEM, n ≥ 3)?
Its value is −34.7 ± 0.1 mV.

And the “Vhalf inactivation, Nav1.5” value (hNav1.5; 1 µM, control (ND96) −66.0 ± 0.2, mean ± SEM, n ≥ 3)?
Its value is −69.2 ± 0.2 mV.

What about the “number of targets acted on, of 28 screened ion channels” value [1] of the same sequence?
The value was 26 targets.

And the “Shift in Vhalf activation, Nav1.1” value (rNav1.1; 1 µM vs control (ND96))?
Its value is 0.1 mV.

What about the “Shift in Vhalf inactivation, Nav1.1” value (rNav1.1; 1 µM vs control (ND96)) of the same sequence?
Its value is −5.8 mV.

And the “reduction of peak amplitude (INa) / inhibition, Nav1.1” value (rNav1.1; [2])?
The value was 31.2 ± 3.8%.

What about the “Vhalf activation, Nav1.1” value (rNav1.1; 1 µM, control (ND96) −24.6 ± 0.1, mean ± SEM, n ≥ 3) of the same sequence?
Its value is −24.5 ± 0.1 mV.

What about the “Vhalf inactivation, Nav1.1” value (rNav1.1; 1 µM, control (ND96) −37.2 ± 0.2, mean ± SEM, n ≥ 3) of the same sequence?
The value was −43 ± 0.4 mV.

And the “effect on potassium current, Shaker” value (Shaker)?
Its value is “activation”.

And the IC50 (ASIC3)?
Its IC50 is 15.9 ± 1.1 µM.

And the IC50 (ASIC1a)?
The IC50 was 4.8 ± 0.3 µM.

What about the “Shift in Vhalf activation, Nav1.4” value (rNav1.4; 1 µM vs control (ND96)) of the same sequence?
The value was 5.5 mV.

What about the “Shift in Vhalf inactivation, Nav1.4” value (rNav1.4; 1 µM vs control (ND96)) of the same sequence?
Its value is −1.7 mV.

What about the “reduction of peak amplitude (INa), Nav1.4” value (rNav1.4; [2]) of the same sequence?
The value was 29.1 ± 3.0%.

And the “Vhalf activation, Nav1.4” value (rNav1.4; 1 µM, control (ND96) −24.4 ± 0.1, mean ± SEM, n ≥ 3)?
Its value is −18.9 ± 0.1 mV.

What about the “Vhalf inactivation, Nav1.4” value (rNav1.4; 1 µM, control (ND96) −48.5 ± 0.3, mean ± SEM, n ≥ 3) of the same sequence?
Its value is −50.2 ± 0.2 mV.

What about the “gating-modifier effect (voltage-current relationship), Kv1.4” value (rKv1.4; 1 µM) of the same sequence?
The value was “non-significant gating-modifier effect; also recorded: negligible shift in the midpoint of activation”.

And the “Shift in Vhalf activation, Kv1.4” value (rKv1.4; 1 µM vs control (ND96))?
The value was 2.5 mV.

What about the “activity (inhibition of current), Kv1.4” value (rKv1.4; 1 µM, 500 ms depolarization to 0 mV from −90 mV, mean ± SEM, n ≥ 3) of the same sequence?
The value was 46.9 ± 4.3%.

And the “effect on potassium current, Kv1.4” value (rKv1.4; [3])?
The value was “inhibition”.

What about the “Vhalf activation, Kv1.4” value (rKv1.4; 1 µM, control (ND96) 7.5 ± 0.7, mean ± SEM) of the same sequence?
Its value is 10.0 ± 0.5 mV.

What about the “gating-modifier effect (voltage-current relationship), Kv7.4” value (hKv7.4; 1 µM) of the same sequence?
The value was “stronger shift”.

What about the “Shift in Vhalf activation, Kv7.4” value (hKv7.4; 1 µM vs control (ND96)) of the same sequence?
Its value is 7.1 mV.

And the “effect on potassium current, Kv7.4” value (hKv7.4; [3])?
Its value is “inhibition; also recorded: inhibits”.

What about the “Vhalf activation, Kv7.4” value (hKv7.4; 1 µM, control (ND96) 3.8 ± 0.3, mean ± SEM) of the same sequence?
The value was 10.9 ± 0.3 mV.

— article PMC8878452, “A Tale of Toxin Promiscuity: The Versatile Pharmacological Effects of Hcr 1b-2 Sea Anemone Peptide on Voltage-Gated Ion Channels” (Marine Drugs, 2022)
